Test results: a melting point compilation (Tetko et al.; mined from patent text by program, amines drawn as free bases though some values may be those of a salt)

First: CN1CCN(CCCCNc2ncc3cc(-c4c(Cl)cccc4Cl)c(=O)n(C)c3n2)CC1
Second: Cc1ncc2cc(-c3c(Cl)cccc3Cl)c(N=CN(C)C)nc2n1
The melting point of the first is lower: 130 to 132 °C for the first, 236 to 238 °C for the second.

First: CCCCC(=O)Nc1ccc(Cl)cc1C(=O)OC
Second: CCCNC(=O)NS(=O)(=O)c1cc2c(cc1OC)OCCC2CNC(=O)c1cc(Cl)ccc1OC (stereo unspecified)
The melting point of the first is lower: 48 to 49 °C for the first, 159 to 160 °C for the second.

First: CCCn1c(=O)c2c(NC)n[nH]c2n(Cc2ccccc2)c1=O
Second: CCOc1cc(NCCSCc2[nH]cnc2C)nc2ccccc12
The melting point of the first is higher: 307 to 310 °C for the first, 152 to 154 °C for the second.

First: CC(CCC(O)C(C)(C)O)C1CCC2C3C(O)CC4CC(O)CCC4(C)C3CC(O)C12C (stereo unspecified)
Second: CCC(Oc1cccc(C)c1C)C(=O)OC1CC(O)C=C2C=CC(C)C(CCC3CC(O)CC(=O)O3)C21 (mixture of isomers)
The melting point of the first is higher: 199 to 200 °C for the first, 148 to 150 °C for the second.

First: Cc1c(Br)c(=O)n(C2CCCC2)c2nc(Nc3ccccn3)ncc12
Second: C[C@@H](c1ccc(F)cc1)N1CCN(c2cc(Nc3ccc4cccnc4c3)ncn2)CC1
The melting point of the first is higher: 267 to 268 °C for the first, 206 to 207 °C for the second.

Compared with `CCc1cccc(C)c1CNc1cc(C(=O)NC)nc2c1nc(C)n2C`, `Cc1cccc(C)c1CNc1cc(C(=O)N(C)C)cc2c1nc(C)n2C` is lower in melting point: 236 to 238 °C for the first, 142 to 143 °C for the second.

First: CCOC(=O)c1cnn(-c2ccc(F)cc2)c1O
Second: CC(Br)c1nc2ccccc2c(=O)n1-c1ccc(F)cc1 (stereo unspecified)
The melting point of the first is lower: 127 to 128 °C for the first, 180 °C for the second.

First: COc1ccc2c(=O)c(C#N)c(N)oc2c1
Second: CC(=O)c1ccc(N)c(C#N)c1Cl
The melting point of the first is higher: 300 °C for the first, 189 to 193 °C for the second.

First: CC(c1oc2ccccc2c(=O)c1-c1ccccc1)n1nc(-c2ccc3cn[nH]c3c2)c2c(N)ncnc21 (stereo unspecified)
Second: Cc1nc2cc(NC(=O)c3cc4cc(-c5ccccc5)ncc4n3Cc3cccc(F)c3)ccc2n1C
The melting point of the first is lower: 176 to 178 °C for the first, 288 to 290 °C for the second.

First: CC1Cc2cc3c(cc2C(c2ccc([N+](=O)[O-])cc2)=NN1C(N)=S)OCO3 (stereo unspecified)
Second: O=C1OC(Cc2ccc3c(c2)OCO3)CN1c1ccccc1 (stereo unspecified)
The melting point of the first is higher: 213 to 215 °C for the first, 110 to 111 °C for the second.

First: CC(C)OCc1nc(N)c2nccnc2n1
Second: CC(C)c1ccc(C#N)nc1
The melting point of the first is higher: 139 to 141 °C for the first, 47 to 49 °C for the second.

First: CCCCCCCCCCCCC(=O)CC#CCCCC(=O)O
Second: CCCCOc1ccc(S(=O)(=O)NCCCCOc2ccc(-n3ccnc3)cc2)cc1
The melting point of the first is lower: 79 to 80.5 °C for the first, 103 to 105 °C for the second.

Compared with `Cc1ccc(NS(=O)(=O)c2ccccc2)cc1N`, `CCOC(=O)c1[nH]c2cc(-c3ccccc3)ccc2c1N` is higher in melting point: 142 to 144 °C for the first, 181 to 183 °C for the second.

Compared with `COc1cccc(N2CCCN(c3ccnc4sc(C(N)=O)c(N)c34)CC2)c1`, `COc1cccc(C(=O)Nc2ccc3ccc(Cl)nc3n2)c1` is lower in melting point: 193 to 195 °C for the first, 178 °C for the second.

First: O=c1[nH]nnn1-c1ccc(OCc2ccc(F)cc2)cc1F
Second: O=c1[nH]nnn1-c1ccc(Cl)cc1F
The melting point of the first is lower: 171 to 172 °C for the first, 185 to 187 °C for the second.

First: Cc1cc(C=NN2CCNC2=O)no1
Second: CC(=O)NC[C@H]1CN(c2ccc(C3=CCN(C=O)CC3)c(F)c2)C(=O)O1
The melting point of the first is higher: 195 to 197 °C for the first, 148 to 151 °C for the second.

First: CN(CSC(C)(C)C)C(=O)Nc1cccc(C(F)(F)F)c1
Second: Nc1nc(Cl)cc(Oc2ccc3c(C(=O)Nc4cccc(C(F)(F)F)c4)cccc3c2)n1
The melting point of the first is lower: 96 to 99 °C for the first, 234 to 236 °C for the second.

First: Cc1cc(C)cc(NCc2ccc3nc(NCCCN4CCOCC4)n(Cc4nc(C)ccc4O)c3c2)c1
Second: CCCOc1ccc2oc(-c3ccc4c(c3)C=C(C(=O)Nc3ccc(CN(C)C5CCOCC5)cc3)CCS4(=O)=O)cc2c1
The melting point of the first is lower: 199 °C for the first, 241 to 242 °C for the second.

First: CCOC1(OCC)OC(C)=C(C(=O)OC)[C@@H](NC(C)=O)[C@@H]1C (relative stereo)
Second: COCc1nc(C(=O)OC)c(C(=O)OC)[nH]1
The melting point of the first is lower: 87 to 88 °C for the first, 93 to 95 °C for the second.

First: Oc1ccc(-c2[nH]c3ccccc3c2Cn2ccnc2)cc1
Second: O=C(O)CCc1cc2cc(-c3ccc(C(F)(F)F)cc3)ccc2n1S(=O)(=O)c1ccccc1
The melting point of the first is higher: 245 to 247 °C for the first, 162 °C for the second.

First: COC(=O)CN(CC(COc1ccc(Cl)cc1)OC(C)=O)c1ccccc1 (stereo unspecified)
Second: CCSC(=NC(=O)c1ccccc1)Nc1ccccc1F
The melting point of the first is lower: 82 °C for the first, 95 to 97 °C for the second.

First: OCC1OC(n2c(Cl)nc3cc(Cl)c(Cl)cc32)C(O)C1O (stereo unspecified)
Second: NS(=O)(=O)c1c(C(=O)O)cnn1-c1cccc(Cl)n1
The melting point of the first is lower: 175 to 176 °C for the first, 179 to 182 °C for the second.

Compared with `CC(=O)N1CCN(CC2CN=C(c3cc4cc(OCCCS(C)(=O)=O)cc(N(C)S(=O)(=O)c5ccccn5)c4[nH]3)S2)CC1` (stereo unspecified), `CS(=O)(=O)NS(=O)(=O)c1cccc(NC(=O)NC2N=C(c3ccccc3F)c3ccccc3N(CC(=O)N3CC4CCC(CC4)C3)C2=O)c1` (racemic) is higher in melting point: 165 to 167 °C for the first, over 250 °C for the second.

Compared with `CC1(C)CCC(C)(C)c2cc(NC(=O)c3ccc(C(=O)O)cc3O)ccc21`, `CC(C)c1cc2c(cc1O)C(C)(C)CCC2(C)C` is lower in melting point: 286 to 287 °C for the first, 79 to 80 °C for the second.

Compared with `O=C(Nc1ccc2cc(CN3CCCC3)cnc2c1)N1CCC(c2ccc(Cl)cc2)CC1`, `CCNC(=O)c1cc(NS(=O)(=O)c2ccc(I)cc2)ccc1Oc1cncc(Cl)c1` is lower in melting point: 249 to 251 °C for the first, 154 to 156 °C for the second.

Compared with `CCc1cc(CNc2cccc3ccccc23)c(OC)nc1C`, `Cc1oc(-c2ccccc2)nc1COc1ccc(/C=C/CO)cc1C(F)(F)F` is higher in melting point: 82 to 83 °C for the first, 152 to 153 °C for the second.

First: CCN(CC)CCC1(C#N)c2ccccc2COc2ccccc21 (stereo unspecified)
Second: Cn1cnc(C2C(Cl)=CC=CC2(F)Cc2ccc(Cl)cc2)n1 (stereo unspecified)
The melting point of the first is higher: 87 to 90 °C for the first, 78.5 to 80.5 °C for the second.

`CC(C)Oc1cc(O)c(C(=O)C=Cc2ccccc2OC(C)C)c(OC(C)C)c1` and `COc1nc(OC)c(C(C)C)c(C(=O)c2cc(C)cc(Cl)c2)n1` fall in the same range of melting point: 119 to 120 °C for the first, 119 to 120 °C for the second.

First: COc1ccc(S(=O)(=O)C2(C(=O)O)CCN(CC=C(C)C)CC2)cc1
Second: CCOC(=O)/C=C(C)/C=C/C=C(\C)C1=Cc2cc(C34CC5CC(CC(C5)C3)C4)ccc2OC1
The melting point of the first is lower: 142 to 145 °C for the first, 178 to 179 °C for the second.

First: CCOC(=O)C(=O)Nc1cccc(-c2nnn[nH]2)c1
Second: CCOC(=O)c1cc(C)sc1NN=c1c(C(=O)OCC)c[nH]c2ccccc12
The melting point of the first is higher: 192 to 193 °C for the first, 173 to 174 °C for the second.

First: CC(C)C1(C)N=C(c2ncc(C3OCCCCO3)cc2C(=O)O)NC1=O (stereo unspecified)
Second: COc1ccc(CC2NC(=O)NC2=O)cc1OC1CCCC1 (stereo unspecified)
The melting point of the first is lower: 60 to 69 °C for the first, 151 to 153 °C for the second.

First: O=C(O)CCSSc1ccccc1
Second: CC(=O)SCC(CSC(C)=O)C(=O)N(CC(=O)O)C1Cc2ccccc2C1
The melting point of the first is lower: 58 °C for the first, 114 to 115 °C for the second.

First: COc1ccc(OC)c2c1C(=O)C=C(SCCCO)C2=O
Second: CCN1c2ncccc2C(=O)N(C)c2ccc(-c3cnn(CC)c3)nc21
The melting point of the first is higher: 125 to 126 °C for the first, 60 to 62 °C for the second.

First: Nc1ccc2[nH]c(=O)ccc2c1
Second: NNC(=O)C(=O)N(NC(=O)c1cc(Cl)ccc1O)C(=O)c1ccccc1O
The melting point of the first is lower: 116 to 118 °C for the first, over 330 °C for the second.

First: CC(C)COC(=O)C(N)C=CCP(=O)(O)O (stereo unspecified)
Second: COc1cc(OC)cc(C(=O)NC(NC(=NC#N)Nc2ccc(C(F)(F)F)nc2)C(C)(Cl)Cl)c1 (stereo unspecified)
The melting point of the first is lower: 163 to 164 °C for the first, 187 to 189 °C for the second.

`Cc1ccnc2c1n(C(C)C)c(=O)n2-c1ccc(Oc2nc3cccnc3n2C)cc1` gave a melting point of 270 to 271 °C.
